Activity calls are given as the source filed them. No cut-off for these calls is given here.
Key:
[1] = molecular target: T1, Growth factor receptor-bound protein 2 (Homo sapiens, UniProt P62993); assay: Inhibition of Growth factor receptor bound protein 2 SH2 domain in extracellular binding assay
[2] = molecular target: T1, Growth factor receptor-bound protein 2; assay: Inhibition of growth factor receptor-bound protein 2 SH2 domain binding to erbB-2 in cell-based assay (Not significant)
MDA-MB-453 = assay: Inhibition of MDA-MB-453 breast cancer cell proliferation (No inhibition); assay type: functional, cell-based; details: Homo sapiens

Structure (SMILES) | IC50 [1] | NS [2] | NI (MDA-MB-453)
NC(=O)C[C@@H]1NC(=O)C2(CCCCC2)NC(=O)C[C@@H](c2ccc(CP(=O)(O)O)cc2)NC(=O)CCCNC1=O | 47.9 µM | – | –
NC(=O)C[C@@H]1NC(=O)C2(CCCCC2)NC(=O)C[C@@H](c2ccc(CP(=O)(O)O)cc2)NC(=O)C[C@@H](Cc2cccc3ccccc23)CNC1=O | 7.9 µM | inactive | inactive

The next lines start with results.

IC50 [1] | NS [2] | Structure (SMILES) | NI (MDA-MB-453)
52.5 µM | – | NC(=O)C[C@H](NC(=O)C1(NC(=O)CCc2ccc(CP(=O)(O)O)cc2)CCCCC1)C(N)=O | –
> 600 µM | – | NC(=O)C[C@@H]1NC(=O)C2(CCCCC2)NC(=O)C[C@@H](c2ccc(CP(=O)(O)O)cc2)NC(=O)CCNC1=O | –
> 600 µM | – | NC(=O)C[C@@H]1NC(=O)C2(CCCCC2)NC(=O)C[C@@H](c2ccc(CP(=O)(O)O)cc2)NC(=O)CNC1=O | –
0.026 µM | inactive | NC(=O)C[C@@H]1NC(=O)C2(CCCCC2)NC(=O)C[C@@H](c2ccc(CP(=O)(O)O)cc2)/C=C/C[C@@H](Cc2cccc3ccccc23)CNC1=O | inactive

From ChEMBL document CHEMBL1145805, “Utilization of a beta-aminophosphotyrosyl mimetic in the design and synthesis of macrocyclic Grb2 SH2 domain-binding peptides” (J Med Chem, 2003)
